# Patent US20250388589A1, “TRICYCLIC HETEROCYCLIC DERIVATIVES, COMPOSITIONS AND USES THEREOF” (Danatlas Pharmaceuticals Co., Ltd., priority 2022, published 2025)
# pIC50: −log10 of the molar value.
# Legend:
# Kuramochi cell line = test: Cell Viability Assay (Cell Titer-Glo, 7 days); assay type: cell-based; settings: 168 h, Kuramochi cells, 7 days incubation, read-out: PARG Cell viability (IC50)
# Experimental: Cell viability studies were conducted in Kuramochi cell line. Cells were maintained in RPMI (Hyclone, Catalog #: SH3080901B) supplemented with 10% v/v FBS (AusGeneX, Catalog #: FBS500-S), 1% v/v Penicillin Streptomycin (Gibco, Catalog #: 15140122). Cells were seeded in 96-well plates (PerkinElmer, Catalog #: 6005680) at a density of 400 cells/well. Compounds dissolved in DMSO were plated in duplicate using a multichannel pipette, and tested on a 9-point 3-fold serial dilution. Cells were incubated for 7 days in a 37° C. active humidified incubator at 5% CO2. Cell viability was measured using the Cell Titer-Glo reagent (Promega, Catalog #: G7573) as manufacturer's instructions. Luminescence signal was measured with a multimode plate reader (Perkin Elmer, Envision 2105 or BMG, ClarioStar Plus). Average values of DMSO treated wells in a plate was calculated and as high control (HC). Average values of only medium in a plate was calculated and as low control (LC)
# (§1) IC50 values were determined by fitting the data to the standard 4 parameters with Hill Slope using GraphPad Prism software.
# [1] = biological target: hPARG (C-terminal His6-tag) (Homo sapiens (Human), UniProt Q86W56); test: PARG Enzymatic Activity Assay (HTRF); assay type: biochemical; settings: hPARG 65 pM final, biotinylated-NAD ribosylated PARP1 8 nM final
# Sequence of hPARG (C-terminal His6-tag) (Q86W56 whole entry): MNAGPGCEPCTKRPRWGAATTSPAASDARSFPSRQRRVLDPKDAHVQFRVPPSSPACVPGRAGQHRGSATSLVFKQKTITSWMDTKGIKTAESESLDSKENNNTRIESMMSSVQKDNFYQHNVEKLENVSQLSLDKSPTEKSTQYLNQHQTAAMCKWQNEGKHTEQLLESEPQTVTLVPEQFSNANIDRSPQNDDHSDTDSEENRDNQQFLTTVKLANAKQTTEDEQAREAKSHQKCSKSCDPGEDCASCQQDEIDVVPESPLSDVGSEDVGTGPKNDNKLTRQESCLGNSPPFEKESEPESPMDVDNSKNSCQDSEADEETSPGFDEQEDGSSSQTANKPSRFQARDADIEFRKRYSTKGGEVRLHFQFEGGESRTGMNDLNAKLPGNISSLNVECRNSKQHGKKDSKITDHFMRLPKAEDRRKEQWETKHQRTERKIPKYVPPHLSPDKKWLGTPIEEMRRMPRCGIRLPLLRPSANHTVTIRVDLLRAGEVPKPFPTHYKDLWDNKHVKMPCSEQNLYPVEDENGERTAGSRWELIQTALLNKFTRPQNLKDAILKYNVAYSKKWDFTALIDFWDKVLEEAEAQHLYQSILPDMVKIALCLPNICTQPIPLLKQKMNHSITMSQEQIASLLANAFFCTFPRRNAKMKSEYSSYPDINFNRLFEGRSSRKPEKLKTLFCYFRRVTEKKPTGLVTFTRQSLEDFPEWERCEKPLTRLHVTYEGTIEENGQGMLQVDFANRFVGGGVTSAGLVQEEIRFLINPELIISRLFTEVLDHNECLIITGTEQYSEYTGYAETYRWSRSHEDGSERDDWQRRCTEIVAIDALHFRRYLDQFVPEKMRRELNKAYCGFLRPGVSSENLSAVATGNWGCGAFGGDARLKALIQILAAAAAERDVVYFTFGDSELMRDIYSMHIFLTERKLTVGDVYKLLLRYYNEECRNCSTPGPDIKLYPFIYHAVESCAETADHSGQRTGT
# Experimental: PARG Enzymatic Activity Assay HTRF assay was used to measure the ability of compounds to inhibit the activity of PARG in vitro. C-terminal His6-tag PARG expressed in E. coli was purified and stored at −80° C. in aliquots. Assay measurements were performed with 1×buffer comprising 50 mM Tris pH 7.4, 0.1 mg/mL BSA, 3 mM EDTA, 0.4 mM EGTA, 1 mM DTT, 50 mM KCl and 0.01% Tween 20.
# Compounds dissolved in DMSO were plated into a 384-well assay plate (PerkinElmer, Catalog #: 6008280) in duplicate using a dispenser (Labcyte, Echo 665), and tested on a 10-point 4-fold serial dilution. Add 5 L Enzyme mix [hPARG (C-terminal His6-tag, 4.2 μM), 65 pM final] to the test wells. The plates were covered and left to incubate for 60 minutes at RT before the addition of 5 L substrate mix [biotinylated-NAD ribosylated PARP1 (6.1 μM), 8 nM final] to initiate reaction. After incubating 10 minutes at RT, add 2.5 L Streptavidin-Eu cryptate (Cisbio, Catalog #: 610SAKLA) and 2.5 L Mab anti 6HIS-XL665 (Cisbio, Catalog #: 61HISXLA) to the plate, and incubate for 60 minutes at RT. Read on a multimode plate reader (PerkinElmer, Envision 2015) in time-resolved fluorescence (TRF) mode, with excitation at 337 nm and emission at both 620 nm and 665 nm. Average HTRF signal of high control (Wells with 1% DMSO) was calculated and as Vehicle Control (VC). Average HTRF signal of low control (no Enzyme) was calculated and as Positive control (PC).
# as §1
Compound,pIC50 (Kuramochi cell line),pIC50 [1]
"N#CC1(NS(=O)(=O)c2ccc3c4c(N5CCN6CCOC[C@@H]6C5)ncnc4n(-c4nnc(C(F)F)s4)c3c2)CC1 [Example 162, (S)-N-(1-cyanocyclopropyl)-9-(5-(difluoromethyl)-1,3,4-thiadiazol-2-yl)-4-(hexahydropyrazino[2,1-c][1,4]oxazin-8(1H)-yl)-9H-pyrimido[4,5-b]indole-7-sulfonamide]",> 7.00,> 7.00
"CO[C@H]1CCN(C(=O)N2CCC(c3ncnc4c3c3ccc(S(=O)(=O)NC5(C#N)CC5)cc3n4-c3nnc(C(F)F)s3)CC2)C1 [Example 134, (S)—N-(1-Cyanocyclopropyl)-9-(5-(difluoromethyl)-1,3,4-thiadiazol-2-yl)-4-(1-(3-methoxypyrrolidine-1-carbonyl)piperidin-4-yl)-9H-pyrimido[4,5-b]indole-7-sulfonamide]",> 7.00,> 7.00
"Cc1ccc(C(=O)N2CCN(c3ncnc4c3c3ccc(S(=O)(=O)NC5(C#N)CC5)cc3n4-c3nnc(C(F)F)s3)CC2)cn1 [Example 27, N-(1-Cyanocyclopropyl)-9-(5-(difluoromethyl)-1,3,4-thiadiazol-2-yl)-4-(4-(6-methylnicotinoyl)piperazin-1-yl)-9H-pyrimido[4,5-b]indole-7-sulfonamide]",6.00 to 7.00,> 7.00
"CCN1CCN(c2ncnc3c2c2ccc(S(=O)(=O)NC4(C#N)CC4)cc2n3-c2nnc(C(F)F)s2)CC1=O [Example 155, N-(1-cyanocyclopropyl)-9-(5-(difluoromethyl)-1,3,4-thiadiazol-2-yl)-4-(4-ethyl-3-oxopiperazin-1-yl)-9H-pyrimido[4,5-b]indole-7-sulfonamide]",> 7.00,> 7.00
"CC1(NS(=O)(=O)c2ccc3c4c(N5CCN6CCOC[C@H]6C5)ncnc4n(-c4nnc(C(F)F)s4)c3c2)CC1 [Example 184, (R)-9-(5-(Difluoromethyl)-1,3,4-thiadiazol-2-yl)-4-(hexahydropyrazino[2,1-c][1,4]oxazin-8(1H)-yl)-N-(1-methylcyclopropyl)-9H-pyrimido[4,5-b]indole-7-sulfonamide]",6.00 to 7.00,> 7.00
"CC(=O)N1CCC(c2ncnc3c2c2ccc(S(=O)(=O)NC4(C#N)CC4)cc2n3-c2nnc(C(F)F)s2)CC1 [Example 105, 4-(1-acetylpiperidin-4-yl)-N-(1-cyanocyclopropyl)-9-(5-(difluoromethyl)-1,3,4-thiadiazol-2-yl)-9H-pyrimido[4,5-b]indole-7-sulfonamide]",> 7.00,> 7.00
"C[C@H](O)C(=O)N1CCC(c2ncnc3c2c2ccc(S(=O)(=O)NC4(C#N)CC4)cc2n3-c2nnc(C(F)F)s2)CC1 [Example 106, (S)-N-(1-Cyanocyclopropyl)-9-(5-(difluoromethyl)-1,3,4-thiadiazol-2-yl)-4-(1-(2-hydroxypropanoyl)piperidin-4-yl)-9H-pyrimido[4,5-b]indole-7-sulfonamide]",> 7.00,> 7.00
"CN1CCC[C@@H]1C(=O)N1CCC(c2ncnc3c2c2ccc(S(=O)(=O)NC4(C#N)CC4)cc2n3-c2nnc(C(F)F)s2)CC1 [Example 104, N-(1-Cyanocyclopropyl)-9-(5-(difluoromethyl)-1,3,4-thiadiazol-2-yl)-4-(1-(methyl-D-prolyl)piperidin-4-yl)-9H-pyrimido[4,5-b]indole-7-sulfonamide]",6.00 to 7.00,> 7.00
"CCN(C)C(=O)N1CCN(c2ncnc3c2c2ccc(S(=O)(=O)NC4(C#N)CC4)cc2n3-c2nnc(C(F)F)s2)CC1 [Example 7, 4-(7-(N-(1-Cyanocyclopropyl)sulfamoyl)-9-(5-(difluoromethyl)-1,3,4-thiadiazol-2-yl)-9H-pyrimido[4,5-b]indol-4-yl)-N-ethyl-N-methylpiperazine-1-carboxamide]",> 7.00,> 7.00
